Test results: patent US8697694B2, “Substituted pyridine and pyrimidine derivatives and their use in treating viral infections” (priority 2008, dated 2014)

Each compound was assayed on HCV replicon cells (assay: Cell-based HCV replicon assay (replicon RNA level by real time PCR, Taqman)). Conditions: HCV replicon cells, harvested day 3, replicon RNA by real time PCR; reported as range class; read-out: EC90 (μM) range.
Procedure, shortened: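 Readout: ΔCT between NS5B replicon RNA and GAPDH by real-time RT-PCR in lysates harvested on day 3, fitted sigmoidally; EC50 at ΔCT=1, EC90 at ΔCT=3.2. Compounds tested at ten 2-fold dilutions from 25 μM to 1 μM start, 10% FBS, 0.5% DMSO.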
In the case of COc1cc2cc(-c3c(Cl)nc(N(C)C)nc3N[C@@H]3C[C@H](CO)[C@@H](O)[C@H]3O)oc2c(C)n1 [Example 13], the EC90 is reported as over 5 µM. COc1cc2cc(-c3c(Cl)nc(N(C)C)nc3N[C@@H]3C[C@H](CO)[C@@H](O)[C@H]3O)oc2c(C)n1 [Example 12] was tested, and the EC90 was 0.5 to 5 µM.

Same assay, conditions: HCV replicon cells, replicon RNA level by real time PCR, harvested day 3; read-out: EC90 (μM) range
Cc1nc(NCC(F)(F)F)nc(N[C@@H]2C[C@H](C(C)O)[C@@H](O)[C@H]2O)c1-c1nc2ccccc2s1 (single isomer, unassigned) [Example 1648] was tested, and the EC90 was 0.5 to 5 µM.

Same assay, conditions: Hepatitis C virus, 72 h, HCV replicon cells, harvested day 3, replicon RNA by real time PCR; given as number; read-out: EC90 (μM) range
For CCCOc1cc2cc(-c3c(C)nc(NCC(C)(C)C)nc3N[C@@H]3C[C@H](CO)[C@@H](O)[C@H]3O)oc2cn1 [Example 61], the EC90 was over 1 µM. Cc1nc(NCC(F)(F)F)nc(N[C@@H]2C[C@H](COC(=O)N3CCOCC3)[C@@H](O)[C@H]2O)c1-c1nc2ccccc2s1 [Example 63] was tested, and the EC90 was 0.45 µM.

Same assay, conditions: Hepatitis C virus, 72 h, HCV replicon cells, harvested day 3, replicon RNA by real time PCR; reported as range class; read-out: EC90 (μM) range
In the case of CNC(=O)c1ccc2cc(-c3c(Cl)nc(N)nc3N[C@@H]3C[C@H](CO)[C@@H](O)[C@H]3O)oc2c1 [Example 177], the EC90 is reported as over 5 µM. Compound COc1cc2cc(-c3c(Cl)nc(N)nc3N[C@@H]3C[C@H](CO)[C@@H](O)[C@H]3O)oc2cn1 [Example 11] has an EC90 of under 0.5 µM. Nc1nc(Cl)c(-c2ccc(Oc3ccccc3)cc2)c(N[C@@H]2C[C@H](CO)[C@@H](O)[C@H]2O)n1 [Example 101] gave an EC90 of over 5 µM. COCCNc1nc(C)c(-c2nc3ccccc3s2)c(N[C@@H]2C[C@H](CO)[C@@H](O)[C@H]2O)n1 [Example 205] gave an EC90 of under 0.5 µM. Compound CCCOCCNc1nc(C)c(-c2nc3ccccc3s2)c(N[C@@H]2C[C@H](CO)[C@@H](O)[C@H]2O)n1 [Example 227] has an EC90 of under 0.5 µM. For Nc1nc(Cl)c(-c2cc3cc(F)ccc3o2)c(N[C@@H]2C[C@H](CO)[C@@H](O)[C@H]2O)n1 [Example 164], the EC90 was over 5 µM. With CC1(C)O[C@@H]2[C@@H](CO)C[C@@H](Nc3nc(N)nc(Cl)c3-c3nc4ccc(OCc5ccccc5)cc4s3)[C@@H]2O1 [Example 198] the EC90 was over 5 µM. Nc1nc(Cl)c(-c2cc3cnccc3o2)c(N[C@@H]2C[C@H](CO)[C@@H](O)[C@H]2O)n1 [Example 8] was tested, and the EC90 was 0.5 to 5 µM. For Nc1nc(Cl)c(-c2nc3ccc(F)cc3s2)c(N[C@@H]2C[C@H](CO)[C@@H](O)[C@H]2O)n1 [Example 110], the EC90 was 0.5 to 5 µM.

Same assay, conditions: Hepatitis C virus, 72 h, HCV replicon cells, harvested on day 3, replicon RNA by real time PCR; calculated EC90 reported as range class; read-out: EC90 (μM) range
Cc1ccsc1CNc1nc(C)c(-c2nc3ccccc3s2)c(N[C@@H]2C[C@H](CO)[C@H]3OC(C)(C)O[C@H]32)n1 [Example 476] showed an EC90 of under 0.5 µM. CCCCCNc1nc(Cl)c(-c2cc3cc(CC)ncc3o2)c(N[C@@H]2C[C@H](CO)[C@@H](O)[C@H]2O)n1 [Example 511] was tested, and the EC90 was under 0.5 µM. CCc1cc2cc(-c3c(C)nc(NCc4cc(C)on4)nc3N[C@@H]3C[C@H](CO)[C@@H](O)[C@H]3O)oc2cn1 [Example 703] was tested, and the EC90 was under 0.5 µM. Cc1csc(CNc2nc(C)c(-c3nc4ccccc4s3)c(N[C@@H]3C[C@H](CO)[C@@H](O)[C@H]3O)n2)n1 [Example 707] gave an EC90 of under 0.5 µM. For Cc1nc(NCc2cccs2)nc(N[C@@H]2CC[C@@H](O)[C@H]2O)c1-c1nc2ccccc2s1 [Example 336], the EC90 was under 0.5 µM. Cc1nc(NCc2ccncc2)nc(N[C@@H]2C[C@H](CO)[C@H]3OC(C)(C)O[C@H]32)c1-c1nc2ccccc2s1 [Example 464] showed an EC90 of under 0.5 µM. Work on OC[C@H]1C[C@@H](Nc2nc(NCc3cccc(F)c3)nc(Cl)c2-c2nc3ccccc3s2)[C@H](O)[C@@H]1O [Example 234] yielded an EC90 of under 0.5 µM. For CCc1cc2cc(-c3c(C)nc(NCc4ccco4)nc3N[C@@H]3C[C@H](CO)[C@H]4OC(C)(C)O[C@H]43)oc2cn1 [Example 704], the EC90 was under 0.5 µM. CCCCNc1nc(Cl)c(-c2nc3ccccc3s2)c(N[C@@H]2C[C@H](CO)[C@@H](O)[C@H]2O)n1 [Example 432] showed an EC90 of under 0.5 µM. CCCCCNc1nc(Cl)c(-c2cc3cc(CCC)nc(C)c3o2)c(N[C@@H]2C[C@H](CO)[C@@H](O)[C@H]2O)n1 [Example 446] showed an EC90 of under 0.5 µM. Compound CCCCCNc1nc(C)c(-c2nc3ccccc3s2)c(N[C@@H]2CC[C@H]3OC4(CCCCC4)O[C@@H]23)n1 [Example 332] has an EC90 of over 5 µM. For CCCCCNc1nc(C)c(-c2cc3cc(C)nc(C)c3o2)c(N[C@@H]2C[C@H](CO)[C@@H](O)[C@H]2O)n1 [Example 452], the EC90 was under 0.5 µM. Cc1ccc(CNc2nc(C)c(-c3nc4ccccc4s3)c(N[C@@H]3C[C@H](CO)[C@@H](O)[C@H]3O)n2)s1 [Example 497] was tested, and the EC90 was under 0.5 µM.

Same assay, conditions: Hepatitis C virus, 72 h, HCV replicon cells, replicon RNA level by real time PCR (Taqman), day 3; calculated EC90; read-out: EC90 (μM) range
For Cc1nc(NCC(F)(F)F)nc(N[C@@H]2C[C@H](CO)[C@H]3OC(C)(C)O[C@H]32)c1-c1nc2ncccc2o1 [Example 2006], the EC90 was 0.5 to 5 µM. In the case of Cc1nc(NCC2CC2)nc(N[C@@H]2C[C@H](CO)[C@@H](O)[C@H]2O)c1-c1nc2cnccc2o1 [Example 2003], the EC90 is reported as 0.5 to 5 µM. For Cc1nc(NCCc2ccc(C(C)(C)C)cc2)nc(N[C@@H]2C[C@H](CO)[C@H]3OC(C)(C)O[C@H]32)c1-c1nc2cnccc2s1 [Example 2011], the EC90 was over 5 µM.

Same assay, conditions: Hepatitis C virus, 72 h, HCV replicon cells, replicon RNA level by real time PCR (Taqman), harvested on day 3; calculated EC90 reported as range class; read-out: EC90 (μM) range
With Cc1nc(N[C@H](C)c2ccc(F)cc2)nc(N[C@@H]2C[C@H](CO)[C@@H](O)[C@H]2O)c1-c1nc2cnccc2s1 [Example 1311] the EC90 was under 0.5 µM. For Cc1nc(NCC2CC2)nc(N[C@@H]2C[C@H](CO)[C@@H](O)[C@H]2O)c1-c1cc2cc(OCC(C)C)nc(C)c2o1 [Example 1054], the EC90 was 0.5 to 5 µM. Cc1nc(NCc2cccs2)nc(N[C@@H]2C[C@H](CNS(C)(=O)=O)[C@@H](O)[C@H]2O)c1-c1nc2ccccc2s1 [Example 1330] gave an EC90 of under 0.5 µM. Compound Cc1cc2sc(-c3c(C)nc(N[C@@H](C)c4ccc(OC(F)(F)F)cc4)nc3N[C@@H]3C[C@H](CO)[C@@H](O)[C@H]3O)nc2c(C)n1 [Example 1137] has an EC90 of under 0.5 µM. With Cc1nc(Nc2ccc(F)cc2)nc(N[C@@H]2C[C@H](CO)[C@@H](O)[C@H]2O)c1-c1nc2ccccc2s1 [Example 1044] the EC90 was 0.5 to 5 µM. COCCNc1nc(C#N)c(-c2nc3ccccc3s2)c(N[C@@H]2C[C@H](CO)[C@@H](O)[C@H]2O)n1 [Example 1301] gave an EC90 of over 5 µM. In the case of Cc1nc(NCc2ccc3c(c2)OCO3)nc(N[C@@H]2C[C@H](CO)[C@@H](O)[C@H]2O)c1-c1nc2ccccc2s1 [Example 1203], the EC90 is reported as 0.5 to 5 µM. Work on COc1cc2cc(-c3c(C)nc(NCC4CC4)nc3N[C@@H]3C[C@H](CO)[C@H]4OC(C)(C)O[C@H]43)oc2c(OC)n1 [Example 1126] yielded an EC90 of 0.5 to 5 µM. Work on CNc1ccc2oc(-c3c(C)nc(NCC4CC4)nc3N[C@@H]3C[C@H](CO)[C@@H](O)[C@H]3O)nc2c1 [Example 1065] yielded an EC90 of 0.5 to 5 µM. For Cc1nc(N[C@H](C)c2ccccc2)nc(N[C@@H]2C[C@H](CO)[C@@H](O)[C@H]2O)c1-c1nc2cnccc2s1 [Example 543], the EC90 was under 0.5 µM. COCCNc1nc(C)c(-c2nc3cc(OC(F)F)c(OC(F)F)cc3s2)c(N[C@@H]2C[C@H](CO)[C@H]3OC(C)(C)O[C@H]32)n1 [Example 1003] was tested, and the EC90 was over 5 µM. In the case of Cc1nc(Nc2ccccc2)nc(N[C@@H]2C[C@H](CO)[C@@H](O)[C@H]2O)c1-c1nc2ccccc2s1 [Example 1007], the EC90 is reported as 0.5 to 5 µM. Cc1nc(NCC2CC2)nc(N[C@@H]2C[C@H](CO)[C@@H](O)[C@H]2O)c1-c1nc2ccccc2n1C [Example 530] was tested, and the EC90 was over 5 µM. Compound COc1cccc2sc(-c3c(C)nc(N[C@H](C)c4ccc(C)cc4)nc3N[C@@H]3C[C@H](CO)[C@@H](O)[C@H]3O)nc12 [Example 1068] has an EC90 of 0.5 to 5 µM. CNc1nc(C)c(-c2nc3cnccc3s2)c(N[C@@H]2C[C@H](CO)[C@@H](O)[C@H]2O)n1 [Example 1326] was tested, and the EC90 was under 0.5 µM.

Same assay, conditions: Hepatitis C virus, 72 h, HCV replicon cells, replicon RNA level by real time PCR, harvested day 3; read-out: EC90 (μM) range
Cc1ccc([C@@H](C)Nc2nc(C)c(-c3nc4c(C)nccc4s3)c(N[C@@H]3C[C@H](CO)[C@@H](O)[C@H]3O)n2)cc1F [Example 1358] was tested, and the EC90 was under 0.5 µM. Compound Cc1nc(NCC2CC2)nc(N)c1-c1nc2cnccc2s1 [Example 1510] has an EC90 of 0.5 to 5 µM. Work on COC(=O)NC[C@H]1C[C@@H](Nc2nc(NCC(F)(F)F)nc(C)c2-c2nc3ccccc3s2)[C@H](O)[C@@H]1O [Example 1522] yielded an EC90 of 0.5 to 5 µM. For CCCc1nccc2sc(-c3c(C)nc(N[C@H](C)C4CC4)nc3N[C@@H]3C[C@H](CO)[C@@H](O)[C@H]3O)nc12 [Example 1346], the EC90 was under 0.5 µM. Cc1nc(NCC(F)(F)F)nc(NC2CCN(C(=O)OC(C)(C)C)CC2)c1-c1nc2ccccc2s1 [Example 1514] gave an EC90 of over 5 µM. Cc1nc(NCC(F)(F)F)nc(N[C@@H]2C[C@H](CNS(=O)(=O)C(F)(F)F)[C@@H](O)[C@H]2O)c1-c1nc2ccccc2s1 [Example 1523] gave an EC90 of 0.5 to 5 µM. For Cc1nc(NCc2cc3cn[nH]c3cc2F)nc(N[C@@H]2C[C@H](CO)[C@@H](O)[C@H]2O)c1-c1nc2ccccc2s1 [Example 1909], the EC90 was under 0.5 µM. In the case of COc1ccc([C@H](Nc2nc(C)c(-c3nc4c(C)nccc4s3)c(N[C@@H]3C[C@H](CO)[C@@H](O)[C@H]3O)n2)C(F)(F)F)cc1 [Example 1540], the EC90 is reported as under 0.5 µM. For Cc1nc(NCC(F)(F)F)nc(N[C@@H]2C[C@H](CNC(=O)CO)[C@@H](O)[C@H]2O)c1-c1nc2ccccc2s1 [Example 1508], the EC90 was 0.5 to 5 µM. Cc1ccc([C@H](Nc2nc(C)c(-c3nc4c(C)nccc4s3)c(N[C@@H]3C[C@H](CO)[C@@H](O)[C@H]3O)n2)C2CC2)cc1 [Example 1362] was tested, and the EC90 was under 0.5 µM. Cc1ccc([C@@H](C)Nc2nc(C)c(-c3nc4cnccc4s3)c(N[C@@H]3C[C@H](CS(C)(=O)=O)[C@@H](O)[C@H]3O)n2)cc1 [Example 1368] was tested, and the EC90 was under 0.5 µM. In the case of Cc1nc(NC2CCC2)nc(N[C@@H]2C[C@H](CO)[C@@H](O)[C@H]2O)c1-c1nc2ccccc2s1 [Example 1503], the EC90 is reported as 0.5 to 5 µM.
